Test results reported in publication PMC8757604 (Journal of Enzyme Inhibition and Medicinal Chemistry, 2022).
Entries after “also recorded” stand apart in the source; their conditions may differ.

Tests used:
[1] = target: T1, α-Glucosidase from Saccharomyces cerevisiae (Saccharomyces cerevisiae, UniProt P53341); test: α-Glucosidase inhibition kinetics (V vs [E], Lineweaver–Burk plots); assay type: biochemical; conditions: 3a 0-0.5 μM
Description: To probe into the inhibition mechanism of OA derivatives (3a–3t) against α-glucosidase, compound 3a with the strongest inhibitory activity was selected as the representative compound for the enzyme inhibitory kinetic analysis. […] The inhibition kinetic behaviours were investigated using the Lineweaver–Burk plots.
The enzyme inhibition kinetics analysis was investigated using previously reported method with minor modifications[25]^,[26]. In brief, inhibitory effect was determined from the plots of absorbance change of OA derivatives at different concentrations with enzyme at different concentrations. The inhibition type was measured based on the Lineweaver–Burk plot of absorbance change of OA derivatives at different concentrations with p-NPG substrate at different concentrations.

3T3-L1 cells = test: Cells cytotoxicity assay (MTT), 3T3-L1; assay type: cell-based; conditions: 24 h treatment, under concentration of 100 µM
Description: (§1) 3T3–L1 or HepG2 cells were cultured in Dulbecco’s modified Eagle medium (DMEM) with 10% foetal bovine serum (FBS), 100 IU/mL penicillin and 100 IU/mL streptomycin at 37 °C under 5% CO2. 3T3-L1 cells (2 × 10^3) or HepG2 cells ([…]) were plated onto 96-well plate ([…]) and incubated for 24 h. After treated with compound (3a or 3f) for 24 h, the cells were added […] (0.5 mg/mL) and incubated for 4 h. Then […] was added to dissolve the blue insoluble MTT formazan. Finally, the absorbance was measured at 570 nm using a microplate reader. Each sample was performed in triplicate.

[2] = target: T2, α-amylase from hog pancreas (Sus scrofa, UniProt P00690); test: α-Amylase inhibition assay (starch/DNS, absorbance 540 nm)
T2 sequence (P00690 16-511): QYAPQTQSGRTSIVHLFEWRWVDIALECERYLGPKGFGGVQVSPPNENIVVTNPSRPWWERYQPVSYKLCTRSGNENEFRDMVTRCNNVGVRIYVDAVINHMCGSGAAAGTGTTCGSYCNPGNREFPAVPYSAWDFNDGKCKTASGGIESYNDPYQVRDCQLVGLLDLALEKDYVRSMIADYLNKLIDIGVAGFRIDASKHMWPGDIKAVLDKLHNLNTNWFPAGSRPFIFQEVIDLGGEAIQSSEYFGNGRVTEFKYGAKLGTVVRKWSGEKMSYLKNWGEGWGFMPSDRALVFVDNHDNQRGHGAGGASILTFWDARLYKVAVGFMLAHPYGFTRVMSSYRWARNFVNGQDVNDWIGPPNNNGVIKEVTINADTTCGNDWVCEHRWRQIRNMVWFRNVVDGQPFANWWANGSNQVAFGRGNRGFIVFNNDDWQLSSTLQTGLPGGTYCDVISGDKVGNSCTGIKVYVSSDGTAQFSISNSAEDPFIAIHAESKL

HepG2 cells = test: Cells cytotoxicity assay (MTT), HepG2; assay type: cell-based; conditions: 24 h treatment, under concentration of 100 µM
Description: as §1

[3] = target: T1, α-Glucosidase from Saccharomyces cerevisiae; test: biochemical; assay type: biochemical; conditions: for IC50: mean ± SD, enzyme 0.1 U/mL, p-NPG 0.25 mM, pH 6.8, 37 °C, read-out: α-Glucosidase inhibition (IC50)
[4] = target: T2, α-amylase from hog pancreas; test: α-Amylase inhibition kinetics (V vs [E], Lineweaver–Burk plots); assay type: biochemical; design: α-amylase from hog pancreas (EC3.2.1.1); from tissue; host or cells: hog pancreas; conditions: 3f 0-15.0 μM
From the text: Compound 3f with the strongest inhibitory activity against α-amylase was selected as the representative compound for the enzyme inhibitory kinetic analysis.
The enzyme inhibition kinetics analysis was investigated. The operation method was similar with the assay of α-glucosidase, except the concentrations of test compound, enzyme and substrate.

T1 sequence (P53341 whole entry): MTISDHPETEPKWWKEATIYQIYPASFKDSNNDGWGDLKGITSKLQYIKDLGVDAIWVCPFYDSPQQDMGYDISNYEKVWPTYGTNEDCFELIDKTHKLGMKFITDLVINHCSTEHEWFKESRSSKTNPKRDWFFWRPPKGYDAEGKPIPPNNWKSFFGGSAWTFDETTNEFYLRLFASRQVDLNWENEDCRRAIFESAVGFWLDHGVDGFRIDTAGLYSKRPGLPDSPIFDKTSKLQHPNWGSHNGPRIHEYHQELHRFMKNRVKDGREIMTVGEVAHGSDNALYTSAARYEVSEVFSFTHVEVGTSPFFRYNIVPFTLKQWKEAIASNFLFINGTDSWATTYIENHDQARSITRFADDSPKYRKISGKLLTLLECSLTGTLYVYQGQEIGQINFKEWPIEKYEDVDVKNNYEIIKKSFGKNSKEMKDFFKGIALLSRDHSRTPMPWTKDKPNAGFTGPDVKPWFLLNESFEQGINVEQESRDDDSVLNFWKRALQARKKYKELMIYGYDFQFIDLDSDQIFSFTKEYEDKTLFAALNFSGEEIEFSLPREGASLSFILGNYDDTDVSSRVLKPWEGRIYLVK

Compound | IC50 [2] | IC50 [3] | other results
CC1(C)CCC2(C(=O)O)CCC3(C)C(=CCC4C5(C)CCC(=NOC(=O)C=Cc6ccccc6)C(C)(C)C5CCC43C)C2C1 (stereo not shown) [Compound 3a] | 7.86 ± 1.24 µM | 0.35 ± 0.06 µM | Inhibition type towards α-glucosidase ([1]; Lineweaver–Burk plots): mixed-type inhibitor; also recorded: mixed types; Reversibility of α-glucosidase inhibition ([1]; plots of V vs [E]): reversible; Cytotoxicity to 3T3-L1 cells (3T3-L1 cells): non-cytotoxic; Cytotoxicity to HepG2 cells (HepG2 cells): non-cytotoxic; α-glucosidase inhibition, times stronger than OA ([3]; ratio of IC50 vs OA): ~11 times; α-glucosidase inhibition, times stronger than acarbose ([3]; ratio of IC50 vs acarbose): ~1900 times
Cc1ccc(/C=C/C(=O)O/N=C2\CC[C@@]3(C)C(CC[C@]4(C)C3CC=C3C5CC(C)(C)CC[C@]5(C(=O)O)CC[C@]34C)C2(C)C)cc1 (stereo partly shown) [Compound 3b] | 15.3 ± 1.41 µM | 0.68 ± 0.03 µM | –
COc1ccc(/C=C/C(=O)O/N=C2\CC[C@@]3(C)C(CC[C@]4(C)C3CC=C3C5CC(C)(C)CC[C@]5(C(=O)O)CC[C@]34C)C2(C)C)cc1 (stereo partly shown) [Compound 3c] | 25.4 ± 1.17 µM | 0.89 ± 0.07 µM | –
CC1(C)CC[C@]2(C(=O)O)CC[C@]3(C)C(=CCC4[C@@]5(C)CC/C(=N\OC(=O)/C=C/c6ccc(F)cc6)C(C)(C)C5CC[C@]43C)C2C1 (stereo partly shown) [Compound 3d] | 17.5 ± 1.52 µM | 1.45 ± 0.12 µM | –
CC1(C)CC[C@]2(C(=O)O)CC[C@]3(C)C(=CCC4[C@@]5(C)CC/C(=N\OC(=O)/C=C/c6ccc(Cl)cc6)C(C)(C)C5CC[C@]43C)C2C1 (stereo partly shown) [Compound 3e] | 5.64 ± 1.29 µM | 0.95 ± 0.06 µM | –
CC1(C)CCC2(C(=O)O)CCC3(C)C(=CCC4C5(C)CCC(=NOC(=O)C=Cc6ccc(Br)cc6)C(C)(C)C5CCC43C)C2C1 (stereo not shown) [Compound 3f] | 3.8 ± 0.65 µM | 1.28 ± 0.03 µM | Cytotoxicity to 3T3-L1 cells (3T3-L1 cells): non-cytotoxic; α-amylase inhibition, times better than OA ([2]; ratio of IC50 vs OA): ~25 times; α-amylase inhibition, times better than acarbose ([2]; ratio of IC50 vs acarbose): ~26 times; Cytotoxicity to HepG2 cells (HepG2 cells): non-cytotoxic; Inhibition type towards α-amylase ([4]; Lineweaver–Burk plots): mixed types; also recorded: mixed-type inhibitor; Reversibility of α-amylase inhibition ([4]; plots of V vs α-amylase concentration): reversible
CC1(C)CC[C@]2(C(=O)O)CC[C@]3(C)C(=CCC4[C@@]5(C)CC/C(=N\OC(=O)/C=C/c6ccc(C(F)(F)F)cc6)C(C)(C)C5CC[C@]43C)C2C1 (stereo partly shown) [Compound 3g] | 12.6 ± 2.37 µM | 3.13 ± 0.13 µM | –
CC1(C)CC[C@]2(C(=O)O)CC[C@]3(C)C(=CCC4[C@@]5(C)CC/C(=N\OC(=O)/C=C/c6ccc([N+](=O)[O-])cc6)C(C)(C)C5CC[C@]43C)C2C1 (stereo partly shown) [Compound 3h] | 18.3 ± 1.92 µM | 1.36 ± 0.03 µM | –
CC1(C)CC[C@]2(C(=O)O)CC[C@]3(C)C(=CCC4[C@@]5(C)CC/C(=N\OC(=O)/C=C/c6ccc7c(c6)OCO7)C(C)(C)C5CC[C@]43C)C2C1 (stereo partly shown) [Compound 3i] | 17.9 ± 1.21 µM | 0.71 ± 0.02 µM | –
CC1(C)CC[C@]2(C(=O)O)CC[C@]3(C)C(=CCC4[C@@]5(C)CC/C(=N\OC(=O)/C=C/c6ccc(O)cc6)C(C)(C)C5CC[C@]43C)C2C1 (stereo partly shown) [Compound 3j] | 70.8 ± 2.31 µM | 0.82 ± 0.09 µM | –
CC1(C)CC[C@]2(C(=O)O)CC[C@]3(C)C(=CCC4[C@@]5(C)CC/C(=N\OC(=O)c6ccccc6)C(C)(C)C5CC[C@]43C)C2C1 (stereo partly shown) [Compound 3k] | 25.6 ± 1.66 µM | 0.67 ± 0.04 µM | –
Cc1ccc(C(=O)O/N=C2\CC[C@@]3(C)C(CC[C@]4(C)C3CC=C3C5CC(C)(C)CC[C@]5(C(=O)O)CC[C@]34C)C2(C)C)cc1 (stereo partly shown) [Compound 3l] | 55.3 ± 2.39 µM | 0.99 ± 0.05 µM | –
COc1ccc(C(=O)O/N=C2\CC[C@@]3(C)C(CC[C@]4(C)C3CC=C3C5CC(C)(C)CC[C@]5(C(=O)O)CC[C@]34C)C2(C)C)cc1 (stereo partly shown) [Compound 3m] | 35.5 ± 2.41 µM | 1.1 ± 0.1 µM | –
CC1(C)CC[C@]2(C(=O)O)CC[C@]3(C)C(=CCC4[C@@]5(C)CC/C(=N\OC(=O)c6ccc(F)cc6)C(C)(C)C5CC[C@]43C)C2C1 (stereo partly shown) [Compound 3n] | 70.2 ± 2.53 µM | 1.96 ± 0.25 µM | –
CC1(C)CC[C@]2(C(=O)O)CC[C@]3(C)C(=CCC4[C@@]5(C)CC/C(=N\OC(=O)c6ccc(Cl)cc6)C(C)(C)C5CC[C@]43C)C2C1 (stereo partly shown) [Compound 3o] | 26.3 ± 1.61 µM | 1.74 ± 0.14 µM | –
CC1(C)CC[C@]2(C(=O)O)CC[C@]3(C)C(=CCC4[C@@]5(C)CC/C(=N\OC(=O)c6ccc(Br)cc6)C(C)(C)C5CC[C@]43C)C2C1 (stereo partly shown) [Compound 3p] | 15.9 ± 1.75 µM | 1.81 ± 0.05 µM | –
CC1(C)CC[C@]2(C(=O)O)CC[C@]3(C)C(=CCC4[C@@]5(C)CC/C(=N\OC(=O)c6ccc(C(F)(F)F)cc6)C(C)(C)C5CC[C@]43C)C2C1 (stereo partly shown) [Compound 3q] | 33.6 ± 1.93 µM | 3.43 ± 0.17 µM | –
CC1(C)CC[C@]2(C(=O)O)CC[C@]3(C)C(=CCC4[C@@]5(C)CC/C(=N\OC(=O)c6ccc([N+](=O)[O-])cc6)C(C)(C)C5CC[C@]43C)C2C1 (stereo partly shown) [Compound 3r] | 70.7 ± 1.25 µM | 1.41 ± 0.12 µM | –
CC1(C)CC[C@]2(C(=O)O)CC[C@]3(C)C(=CCC4[C@@]5(C)CC/C(=N\OC(=O)c6ccc7c(c6)OCO7)C(C)(C)C5CC[C@]43C)C2C1 (stereo partly shown) [Compound 3s] | 18.7 ± 1.29 µM | 1.37 ± 0.06 µM | –
CC1(C)CC[C@]2(C(=O)O)CC[C@]3(C)C(=CCC4[C@@]5(C)CC/C(=N\OC(=O)c6ccc(O)cc6)C(C)(C)C5CC[C@]43C)C2C1 (stereo partly shown) [Compound 3t] | 152 ± 4.24 µM | 0.91 ± 0.04 µM | –
